From ChEMBL document CHEMBL1148239, “Studies on intestinal permeability of cirrhotic patients by analysis lactulose and mannitol in urine with HPLC/RID/MS” (Bioorg Med Chem Lett, 2004)
Where “and” joins values, the source holds several entries; their conditions need not be identical. Equal entries are not always repeated.

Experiments:
[1] = Percent of compound in cirrhotic patients of spontaneous ascitic fluid infection after dosing with normal antibiotics and lactose; type: ADME; settings: human, in vivo
[2] = Percent recovery of 500 ug/mL compound after administration in cirrhotic patients; type: ADME; settings: human, in vivo
[3] = Percent of compound in cirrhotic patients of spontaneous ascitic fluid infection before dosing with normal antibiotics and lactose; type: ADME; settings: human, in vivo
[4] = Percent of compound in healthy individuals (Group D); type: ADME; settings: human
[5] = Percent of compound in cirrhotic patients of spontaneous ascitic fluid infection after dosing with normal antibiotics; type: ADME; settings: human, in vivo
Homo sapiens [6] = species: Homo sapiens; experiment: Ratio of lactulose and mannitol in cirrhotic patients of sterile ascitic fluid (Group C); type: ADME, organism-based; settings: in vivo
[7] = Percent of compound in cirrhotic patients of spontaneous ascitic fluid infection before dosing with normal antibiotics; type: ADME; settings: human, in vivo
Homo sapiens [8] = experiment: Ratio of percent compound before and after dosing in cirrhotic patients of spontaneous ascitic fluid infection; type: ADME, organism-based; settings: in vivo
Homo sapiens [9] = experiment: Ratio of percent compound after dosing in cirrhotic patients of spontaneous ascitic fluid infection; type: ADME, organism-based; settings: in vivo
[10] = Percent of compound in cirrhotic patients of spontaneous ascitic fluid infection (Group A and B); type: ADME; settings: human
Homo sapiens [11] = species: Homo sapiens; experiment: Ratio of lactulose and mannitol in healthy individuals (Group D); type: ADME, organism-based; settings: in vivo
Homo sapiens [12] = species: Homo sapiens; experiment: Ratio of lactulose and mannitol in cirrhotic patients of spontaneous ascitic fluid infection (Group A and B); type: ADME, organism-based; settings: in vivo
[13] = Percent recovery of 10 ug/mL compound after administration in cirrhotic patients; type: ADME; settings: human, in vivo
Homo sapiens [14] = experiment: Ratio of percent compound before dosing in cirrhotic patients of spontaneous ascitic fluid infection; type: ADME, organism-based; settings: in vivo
[15] = Percent recovery of 100 ug/mL compound after administration in cirrhotic patients; type: ADME; settings: human, in vivo
[16] = Percent of compound in cirrhotic patients of sterile ascitic fluid (Group C); type: ADME; settings: human

Row | SMILES | Activity [1] | Recovery [2] | Activity [3] | Activity [4] | Activity [5] | Ratio (Homo sapiens [6]) | Activity [7] | Ratio (Homo sapiens [8]) | Ratio (Homo sapiens [9]) | Activity [10] | Ratio (Homo sapiens [11]) | Ratio (Homo sapiens [12]) | Recovery [13] | Ratio (Homo sapiens [14]) | Recovery [15] | Activity [16]
1 | OC[C@@H](O)[C@@H](O)[C@H](O)[C@H](O)CO [MANNITOL] | 0.0732% | 97.1% | 0.0733% | 0.0838% | 0.0782% | 0.0715 | 0.0735% | 0.0985 | 0.0814 and 0.0572 | 0.0741% | 0.0209 | 0.1003 | 93.3% | 0.1009 | 95.2% | 0.0691%
2 | OC[C@H]1O[C@@H](O[C@@H]2[C@@H](CO)O[C@](O)(CO)[C@H]2O)[C@H](O)[C@@H](O)[C@H]1O [LACTULOSE] | 0.0044% | 97% | 0.0071% | 0.00177% | 0.006% | 0.0715 | 0.007% | 0.1009 | 0.0814 and 0.0572 | 0.00719% | 0.0209 | 0.1003 | 93.1% | 0.1009 | 93.7% | 0.00476%
